# Test results taken from US10935552B2, “Aie luminogens for visualization and treatment of cancer” (THE HONG KONG UNIVERSITY OF SCIENCE AND TECHNOLOGY, priority 2015, dated 2021).
# Structures can show the parent of a compound that is named as a salt.
# Experiments:
# Lung cancer cell A549 = assay: Cancer cell imaging for lung cancer cell A549 by TTE; assay type: cell-based; settings: A549, 10 μM TTE, 15 mins
# Description: (§1) Cell Culture. HeLa cells were cultured in MEM containing 10% FBS and 1% antibiotics (100 units/mL penicillin and 100 µg/mL streptomycin) in a 5% CO2 humidity incubator at 37° C. Cell Imaging. Lung cancer cell A549 were cultured in DMEM containing 10% FBS and antibiotics (100 units/mL penicillin and 100 µg/mL streptomycin) in a 5% CO2 humidity incubator at 37° C. Two different kind of cells were grown overnight on a 35 mm petri dish with a cover slip. The live cells were incubated with 10 μM of TTE for 15/30 mins, TFE for 30′ and fl-TFE for 30′ and 5 h (the last two have been tested only in HeLa cells). In a typical experiment, 2 μL of a 10 mM stock solution of TTE in DMSO were diluted to 1 mL with cell culture medium, followed by further dilution to desired concentration. The cells were imaged under a fluorescent microscope (BX41 Microscope) using same excitation and emission filters: excitation filter=330-385 nm, dichroic mirror=420 nm, and emission filter=400 nm long pass.
# The A549 cells were grown overnight on a 35 mm petri dish with a cover slip. The live cells were incubated with 10 μM of TTE for 30 mins. The A549 cells were incubated with 10 μM TTE and 1 μg/mL for 15 mins.
# HeLa cells [1] = assay: Cancer cell imaging for HeLa cells (TTE, TFE, fl-TFE); assay type: cell-based, human
# Description: as §1
# The HeLa cells were grown overnight on a 35 mm petri dish with a cover slip. The live cells were incubated with 10 μM of TTE for 30 mins, which are shown in FIG. 17A-B. The HeLa cells were incubated with 50 μM oleic acid for 6 hrs and then were co-stained by 10 μM TTE and 1 μg/mL for 15 mins.
# MCF-7 cells [2] = assay: Photo-bleaching resistance by continuous scanning of stained MCF-7 cells; assay type: cell-based; settings: MCF-7, 2 μM 30 min, 50 scans, total irradiation 3 min, 0.1 mW
# Description: In order to determine the working mechanism of TPE-TMX to MCF-7 cells, probes with long-term tracking are highly pursued. To compare the photo-bleaching resistance between TPE-TMX and LTR, continuous scanning of the stained MCF-7 cells by UV irradiation was carried out and the PL intensity at each scan was recorded. These two sets of MCF-7 cells were first incubated in a medium for 24 hrs and then stained with TPE-TMX and LTR at 2 μM for 30 min, respectively. The excitation power from 405 nm and 561 nm channels of the microscope was unified as 0.1 mW. The initial fluorescence intensity for the dyes was normalized and the percentage of intensity loss was calculated.
# HeLa cells [3] = assay: Photostability by continuous confocal scanning of stained HeLa cells; assay type: cell-based, human
# Source text: Compared with LTR, the working concentration of AIE-LysoY is much higher. LTR is not more sensitive than AIE-LysoY. As mentioned previously, LTR can only be used at low concentrations to avoid the ACQ effect. At such a low working concentration, the fluorescent probes molecularly disperse in the organelle and can be easily photooxidized by continuous excitation light, resulting in the low photostability of these probes. In order to evaluate the photostability of AIE-LysoY, a confocal microscope (Zeiss laser scanning confocal microscope LSM7 DUO) was applied to continuously scan cells stained by AIE-LysoY. The photostability of LTR was also measured for comparison. The power of excitation light (405 nm for AIE-LysoY and 561 nm for LTR) were unified by using a power meter. […] In contrast, the fluorescence intensity from LTR dropped to lower than 50% of its initial value after only 25 scans (FIG. 28, hollow circle line). The slight fluctuation of fluorescence signal can be ascribed to the dynamic movement of lysosome in living cells. The excellent photostability of AIE-LysoY may stem from its nanoparticles nature in lysosome imaging, which can protect the chromophore inside the particles from being photooxidzied. In this way, the fluorescence of […] can pertain after a long-time irradiation. […]
# MCF-7 cells [4] = assay: Fluorescence microscopy and long-term tracing of MCF-7 cells treated with TPE-TMX; assay type: cell-based; settings: for Fluorescence of stained cells with increasing number of passages: long-term tracing
# Source text: (§2) To examine this hypothesis, fluorescence microscopy of different cell lines treated with TPE-TMX was undertaken. […] Lysosome is an acidic enzyme enriched organelle responsible for digesting intracellular biomolecules, while TPE-TMX with a basic amino group is more favored to target the lysosomes in cells. Once the molecules are accumulated on the surface of lysosome, their intermolecular motions are restricted, which activates the AIE process and thus lights up the organelle.
# The whole cells exclude nuclei are highly emissive after the treatment of TPE-TMX for 192 hrs, which is proposed as autophagy. This mechanism is thought to be a degradation system that is mediated by a unique organelle called the autophagosome and then fuses with lysosome to form an autolysosome. Once the autolysosomes are formed, the cells become dysfunctional and eventually cause cell death. […] This is the first time that autophagy can be fluorescently monitored using a theranostic agent for breast cancer cells.
# lysosome = assay: Lysosome imaging in HeLa cells, co-staining with LTR; assay type: cell-based, human; settings: HeLa
# Description: Then, AIE-LysoY was applied to lysosome imaging and its lysosome-targeting performance was assessed by fluorescence microscope. HeLa cells were stained with 10 μM of AIE-LysoY for 10 min, followed by washing away the abundant molecules of AIE-LysoY and incubation with 50 nM of LTR for 30 min. […] The fluorescence of AIE-LysoY overlaps perfectly with that of LTR, indicating the lysosome-targeting of AIE-LysoY.
# Quantitative analysis of the degree of overlapping of these two fluorescence signals by Pearson's coefficient (Rr), which depicts the degree of linear dependence between two variables, gives an overlapping coefficient of 0.90. The high Rr value proves that AIE-LysoY is a lysosome-selective probe. […] Changing the staining time from 10 min to 60 min, the specificity to lysosome is retained, as well as the emission contrast.
# To design the lysosome-specific bioprobe, a molecular engineering approach was employed. The precursor of AIE-LysoY, FAS-Br, and two morpholine-functionalized AIEgens, TPE-2Mor and Nred-mor were prepared and applied to cell imaging. The molecular structures of TPE-2mor and Nred-mor are shown below: […]
# [5] = MTT cell viability assay, HeLa cells; assay type: cell-based, human; settings: human, HeLa cells, 15 μM, MTT
# Description: Hela cells were incubated with different concentrations of Naph-IQ in culture medium for 24 hours.
# Before employing AIE-LysoY as a fluorescent visualizer of lysosome, a 3-(4,5-dimethyl-2-thiazolyl)-2,5-diphenyltetrazolium bromide (MTT) cell proliferation assay was first conducted to evaluate its cytotoxicity. […] The good biocompatibility of AIE-LysoY enables its application as a fluorescent tracer to follow the autophagic process of lysosome.
# [6] = cited from earlier work
# HeLa cells [7] = assay: Cancer cell imaging for HeLa cells by IDA-TPE; assay type: cell-based, human; settings: 10 μM, 30 mins
# Description: Cell Culture. HeLa cells were cultured in MEM containing 10% FBS and 1% antibiotics (100 units/mL penicillin and 100 µg/mL streptomycin) in a 5% CO2 humidity incubator at 37° C.
# The HeLa cells were grown overnight on a 35 mm petri dish with a cover slip. […] The cells were imaged under a fluorescent microscope (BX41 Microscope) using same excitation and emission filters: excitation filter=330-385 nm, dichroic mirror=420 nm, and emission filter=400 nm long pass.
# [8] = test system: ER independent breast cancer cells (MDA-MB-231 cells); assay: MTT cytotoxicity of TPE-TMX, MDA-MB-231 cells; assay type: cell-based; settings: MDA-MB-231, up to 10 μM
# Description: (§3) For the rational molecular design of TPE-TMX, it is extremely critical that it can restore its therapeutic ability as TMX after the modification. To investigate its therapeutic performance, the cytotoxicity of TPE-TMX to a variety of cell lines was evaluated using a MTT assay (FIG. 33). […] Therefore, TPE-TMX may form a complex with receptor that can manifest selective accumulation in MCF-7 cells and lead to cell death.
# MCF-7 cells [9] = assay: Lysosomal imaging in MCF-7 cells, co-staining with LTR; assay type: cell-based
# Description: The behavior of TPE-TMX in cellular settings was studied as compared to TMX. MCF-7 cells were incubated with 2 μM TPE-TMX and […] TMX for 24 hrs, respectively. The cells were then washed and directly observed under the microscope without fixation. […] However, the exact intracellular location of TMX cannot be confirmed by fluorescent microscopy because its emission wavelength is not in the range of the visible spectrum. Therefore, a series of commercial fluorescent markers were used to image drug delivery of TMX. […] On the other hand, TPE-TMX, without any aid of fluorescent dye, can be successfully monitored in the cells thanks to its intense blue emission. The controls display no emission under UV irradiation.
# To further confirm the subcellular distribution of TPE-TMX, LTR was also used to co-stain MCF-7 cells with TPE-TMX. […] As expected, TPE-TMX is a specific fluorescent dye to visualize lysosomal organelle structures as well as monitor the drug release.
# [10] = test system: ER+ breast cancer cells (MCF-7 cells); assay: MTT cytotoxicity of TPE-TMX, MCF-7 cells; assay type: cell-based
# Description: as §3
# different cell lines = assay: Fluorescence microscopy of different cell lines treated with TPE-TMX; assay type: cell-based
# Source text: as §2
# a variety of cell lines = assay: MTT cytotoxicity of TPE-TMX, other cell lines; assay type: cell-based; settings: up to 10 μM
# Description: as §3
# HeLa cells [11] = assay: Autophagy induction by rapamycin in AIE-LysoY-stained HeLa cells; assay type: cell-based, human; settings: HeLa stained with 10 μM AIE-LysoY, prolonged rapamycin treatment
compound,measurement,setting,value
"c1csc(C(=C(c2cccs2)c2cccs2)c2cccs2)c1 [TTE, TetraThienylEthene]",Organelle selectivity (overlap with BODIPY),Lung cancer cell A549,can selectively target lipid droplets
same,Ability to enter cells as bioprobe,"HeLa cells [1]; 10 μM, TTE in HeLa and A549, TFE and fl-TFE only in HeLa",the only one able to enter inside the cells
same,Organelle selectivity (overlap with BODIPY),"HeLa cells [1]; HeLa, 50 μM oleic acid 6 hrs, 10 μM TTE, 15 mins",can selectively target lipid droplets
"CN(C)CCNC(=O)CCc1ccc2n1[B-](F)(F)[N+]1=C(c3ccc[nH]3)C=CC1=C2 [LTR, reference compound]",PL signal loss,MCF-7 cells [2],more than 55%
same,Fluorescence intensity relative to initial value,"HeLa cells [3]; 561 nm, after 25 scans",lower than 50%
same,Fluorescence of stained cells with increasing number of passages,MCF-7 cells [4],dramatically weakened
"Oc1cc(OCCCCCCN2CCOCC2)ccc1/C=N/N=C1c2ccccc2-c2ccccc21 [AIE-LysoY, (E)-2-(((9H-fluoren-9-ylidene)hydrazono)methyl)-5-((6-morpholinohexyl)oxy) phenol]",Fluorescence signal after continuous scanning,"HeLa cells [3]; 405 nm, total irradiation time ~6 min",almost remain unchanged
same,Lysosome targeting,"lysosome; 10 μM 10 min, then 50 nM LTR 30 min",selectively accumulates in the dot-shaped lysosomes
same,Pearson's coefficient (Rr) of overlap with LTR,"lysosome; 10 μM AIE-LysoY, 50 nM LTR",0.90
same,"viability at 24 h, 15 µM",[5],> 80%
"O=C(O)C(F)(F)F [TFA, trifluoroacetic acid]",pKa,[6],about −0.3
"O=C(O)CN(CC(=O)O)Cc1ccc(C(=C(c2ccccc2)c2ccccc2)c2ccccc2)cc1 [IDA-TPE, iminodiacetic acid tetraphenylethene]",Cell uptake,HeLa cells [7],can go inside the cancer cell
same,Fluorescence staining of cells,HeLa cells [7],can target HeLa cells
CN(C)CCOc1ccc(C(=C(c2ccccc2)c2ccccc2)c2ccccc2)cc1 [TPE-TMX],Cell viability by MTT,[8],not dramatically altered
same,PL signal loss,MCF-7 cells [2],no significant PL loss
same,Subcellular distribution,"MCF-7 cells [9]; MCF-7, 2 μM 30 min, then LTR 15 min",selectively stains lysosomes
same,Pearson correlation coefficient of co-localization with LTR (r),"MCF-7 cells [9]; MCF-7, 2 μM TPE-TMX",0.96
same,Cytotoxicity (therapeutic response) by MTT,[10],has only the therapeutic response to ER+ breast cancer cells (MCF-7 cells)
same,Subcellular localisation,different cell lines; all tested cell lines,localized on lysosomes in all tested cell lines
same,Morphological effect,different cell lines; other cell lines,no obvious morphological change
same,Cell viability by MTT,a variety of cell lines,not dramatically altered
same,Morphological effect,MCF-7 cells [4]; MCF-7,"induces the formation of vacuole, lysosomal swelling and cell death"
same,Effect on cells in continuous monitoring,"MCF-7 cells [4]; MCF-7, 2 μM","induce vacuoles, lysosome swelling, and loss of the cell population"
same,Fluorescence intensity in cells,MCF-7 cells [4]; MCF-7 versus other cell lines,more prominent in MCF-7 cells compared to the others
same,Fluorescence of stained cells with increasing number of passages,MCF-7 cells [4],increases with increasing number of passages
CO[C@H]1C[C@@H]2CC[C@@H](C)[C@@](O)(O2)C(=O)C(=O)N2CCCC[C@H]2C(=O)O[C@H]([C@H](C)C[C@@H]2CC[C@@H](O)[C@H](OC)C2)CC(=O)[C@H](C)/C=C(\C)[C@@H](O)[C@@H](OC)C(=O)[C@H](C)C[C@H](C)/C=C/C=C/C=C/1C [rapamycin],Lysosome number (yellow spots),HeLa cells [11],increased
